One may read the EC50 as the concentration at which the effect is half-maximal. By CC50 is commonly meant the concentration at which the toxic effect on the cells reaches its halfway point. A lower CC50 goes with greater toxicity to the cells. One may read the AC50 as the concentration at which the activity in the assay is half-maximal.

Assay [1] in a line: HIV-1 Env-mediated cell fusion inhibitors, dose response, CCR5-tropic Env (AID 2279). Type of assay: functional.
Assay [2] has as its target T1, Aminopeptidase N (Plasmodium falciparum FcB1/Columbia, UniProt O96935).
T1 sequence (O96935 whole entry): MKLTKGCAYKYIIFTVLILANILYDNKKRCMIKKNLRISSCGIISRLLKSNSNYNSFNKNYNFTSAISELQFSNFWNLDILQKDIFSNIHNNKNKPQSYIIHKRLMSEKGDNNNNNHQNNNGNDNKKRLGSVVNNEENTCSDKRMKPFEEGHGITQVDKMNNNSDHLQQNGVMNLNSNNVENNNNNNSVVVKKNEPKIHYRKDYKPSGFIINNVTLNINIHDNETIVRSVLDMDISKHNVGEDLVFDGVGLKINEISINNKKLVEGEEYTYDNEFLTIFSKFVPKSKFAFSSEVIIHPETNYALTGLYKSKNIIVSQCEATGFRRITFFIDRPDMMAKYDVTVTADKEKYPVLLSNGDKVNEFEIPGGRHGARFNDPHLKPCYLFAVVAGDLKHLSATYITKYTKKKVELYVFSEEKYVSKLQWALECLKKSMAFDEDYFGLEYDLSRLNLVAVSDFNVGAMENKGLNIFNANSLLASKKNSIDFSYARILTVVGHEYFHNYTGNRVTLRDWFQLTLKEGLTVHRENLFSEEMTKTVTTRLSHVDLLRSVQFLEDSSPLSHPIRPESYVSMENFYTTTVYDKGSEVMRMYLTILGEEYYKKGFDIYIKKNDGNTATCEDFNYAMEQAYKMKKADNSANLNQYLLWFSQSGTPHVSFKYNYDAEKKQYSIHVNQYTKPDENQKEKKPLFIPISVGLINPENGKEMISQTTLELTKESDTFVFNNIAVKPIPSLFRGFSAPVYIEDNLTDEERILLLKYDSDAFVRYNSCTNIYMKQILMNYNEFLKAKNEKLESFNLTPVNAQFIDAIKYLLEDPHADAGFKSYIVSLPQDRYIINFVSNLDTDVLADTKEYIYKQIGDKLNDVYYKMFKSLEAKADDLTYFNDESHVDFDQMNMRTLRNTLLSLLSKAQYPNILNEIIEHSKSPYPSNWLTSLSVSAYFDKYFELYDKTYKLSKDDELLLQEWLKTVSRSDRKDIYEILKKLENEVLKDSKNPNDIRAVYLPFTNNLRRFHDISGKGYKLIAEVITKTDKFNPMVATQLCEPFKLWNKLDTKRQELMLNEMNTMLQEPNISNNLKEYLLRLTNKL
Description: P. falciparum M1AAP inhibitors, biochemical, fluorogenic H-Leu-NHMec substrate, 1536-well (AID 1445). On the set-up: species or system Plasmodium falciparum 3D7, 3D7.

Assay [3] has as its target Peroxisome proliferator-activated receptor gamma/Nuclear receptor coactivator 2 (Homo sapiens, UniProt P37231). Type of assay: functional.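 Also: agonist potency for raising coactivator recruitment to the receptor.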
The target of assay [4] is Peroxisome proliferator-activated receptor gamma/Nuclear receptor coactivator 3 (Homo sapiens, UniProt P37231). Type of assay: functional.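 Also: agonist potency for raising coactivator recruitment to the receptor.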
In assay [5] the target is Peroxisome proliferator-activated receptor gamma/Nuclear receptor coactivator 1 (Homo sapiens, UniProt P37231). Type of assay: functional.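 Also: agonist potency as compounds enhance coactivator SRC-1 recruitment to PPARgamma.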
In assay [6] the test system is HeLa. Description: Cytotoxicity counterscreen assay for transcriptional activators of heat shock protein 70 (Hsp70). [Related pubchem assays: 1203, 1252 ]. Type of assay: functional. To be noted: Homo sapiens. A general note: A counterscreen serves to expose hits that act by an unwanted route or on another target.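 Also: cells exposed to compound for 16 hours before readout.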
The target of assay [7] is T2, Rac GTPase-activating protein 1 (Homo sapiens, UniProt Q9H0H5).
T2 sequence (Q9H0H5 whole entry): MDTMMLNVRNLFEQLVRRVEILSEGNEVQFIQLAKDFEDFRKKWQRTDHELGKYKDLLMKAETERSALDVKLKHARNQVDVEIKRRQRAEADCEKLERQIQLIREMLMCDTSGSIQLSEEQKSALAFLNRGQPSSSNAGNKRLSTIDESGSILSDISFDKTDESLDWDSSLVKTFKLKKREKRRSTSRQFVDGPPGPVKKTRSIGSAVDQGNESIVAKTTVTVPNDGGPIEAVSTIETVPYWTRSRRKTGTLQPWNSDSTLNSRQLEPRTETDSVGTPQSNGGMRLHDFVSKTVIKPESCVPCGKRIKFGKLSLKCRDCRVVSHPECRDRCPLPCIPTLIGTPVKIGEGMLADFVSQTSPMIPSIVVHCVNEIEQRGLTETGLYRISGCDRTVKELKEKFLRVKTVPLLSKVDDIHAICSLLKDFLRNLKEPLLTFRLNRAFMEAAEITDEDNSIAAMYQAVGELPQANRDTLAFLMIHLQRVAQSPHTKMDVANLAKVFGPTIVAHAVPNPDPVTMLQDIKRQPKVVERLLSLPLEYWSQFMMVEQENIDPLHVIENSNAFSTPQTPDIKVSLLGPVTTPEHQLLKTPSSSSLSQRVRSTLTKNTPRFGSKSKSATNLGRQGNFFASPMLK
Description: MgcRacGAP GTPase-activating activity inhibitors, confirmation, biochemical, ADP Hunter fluorescence, primary and confirmatory (AID 624330). Type of assay: functional.

A short description of assay [8]: inhibitors of Bluetongue virus cytopathic effect, confirmation, arbovirus, BSR cells (AID 1250).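 Also: protection from viral cytopathic effect measured as cell viability by ATP luminescence.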 Type of assay: functional.
Assay [9] deals with T3, Estrogen receptor (Homo sapiens, UniProt P03372).
T3 sequence (P03372 whole entry): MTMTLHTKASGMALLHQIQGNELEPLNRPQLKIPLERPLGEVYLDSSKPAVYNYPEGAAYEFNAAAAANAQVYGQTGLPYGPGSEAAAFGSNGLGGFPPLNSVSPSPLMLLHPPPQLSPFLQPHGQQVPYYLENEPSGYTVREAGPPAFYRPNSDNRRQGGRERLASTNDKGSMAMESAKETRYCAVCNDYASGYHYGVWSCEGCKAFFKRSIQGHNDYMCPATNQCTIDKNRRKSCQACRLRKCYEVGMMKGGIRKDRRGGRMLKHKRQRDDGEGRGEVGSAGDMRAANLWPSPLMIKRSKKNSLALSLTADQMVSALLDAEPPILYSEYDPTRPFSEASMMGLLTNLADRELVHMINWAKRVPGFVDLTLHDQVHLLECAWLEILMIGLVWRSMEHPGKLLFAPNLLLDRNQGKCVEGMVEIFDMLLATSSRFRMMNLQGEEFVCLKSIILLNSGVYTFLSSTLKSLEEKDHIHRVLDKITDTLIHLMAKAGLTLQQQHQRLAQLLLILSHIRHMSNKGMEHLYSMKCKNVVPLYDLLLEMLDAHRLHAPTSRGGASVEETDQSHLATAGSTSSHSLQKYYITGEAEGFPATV
Description: ERα–SRC-3 coactivator interaction inhibitors, confirmation, orthogonal assay, biochemical, ELISA, streptavidin-HRP readout (AID 1079). Background: In an ELISA, binding on a coated surface is turned into a signal by an enzyme label.

Assay [10] addresses Mucolipin-3 (Homo sapiens, UniProt Q8TDD5). Description: Dose response cell-based high-throughput screening assay for agonists of the transient receptor potential channel ML3 (TRPML3). [Related pubchem assays: 1526, 1424, 1448 ]. Type of assay: functional.
Assay [11] deals with Ion channel NompC (Danio rerio, UniProt Q7T1G6). The assay is described as follows: Fluorescence counterscreen assay for TRPML3 agonists: dose response cell-based high-throughput screening assay to identify agonists of the transient receptor potential channel N1 (TRPN1). [Related pubchem assays: 1526, 1424, 1448 ]. Type of assay: functional.
Assay [12] addresses T4, Streptokinase A (Streptococcus pyogenes serotype M1, UniProt P10520).
T4 sequence (P10520 whole entry): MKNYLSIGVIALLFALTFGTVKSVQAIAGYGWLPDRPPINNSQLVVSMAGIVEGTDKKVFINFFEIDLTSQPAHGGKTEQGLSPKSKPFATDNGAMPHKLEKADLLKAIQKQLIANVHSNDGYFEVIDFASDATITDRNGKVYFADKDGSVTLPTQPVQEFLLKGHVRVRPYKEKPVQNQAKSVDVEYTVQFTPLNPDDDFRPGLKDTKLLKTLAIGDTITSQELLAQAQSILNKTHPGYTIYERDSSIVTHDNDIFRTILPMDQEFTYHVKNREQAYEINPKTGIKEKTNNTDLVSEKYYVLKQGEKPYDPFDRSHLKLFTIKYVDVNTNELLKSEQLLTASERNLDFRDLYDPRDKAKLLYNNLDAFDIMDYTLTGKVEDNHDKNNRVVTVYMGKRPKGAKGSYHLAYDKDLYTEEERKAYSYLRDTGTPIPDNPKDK
The assay is described as follows: S. pyogenes streptokinase expression inhibitors, potency, dose response, plasminogen activation absorbance, OD405 (AID 1914).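 Also: secreted streptokinase activity via plasminogen activation per viability signal from cell pellet.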 Type of assay: functional, Streptococcus pyogenes M1 GAS.

Assay [13] addresses T5, Probable nicotinate-nucleotide adenylyltransferase (Staphylococcus aureus (strain N315), UniProt P65502). Type of assay: functional, Staphylococcus aureus subsp. aureus N315.
In assay [14] the test system is Streptococcus sp. 'group A'. Description: growth inhibition of control SK(-) GAS strain, dose response, counter-screen for streptokinase expression inhibitor project, luminescence, kanamycin, BacTiterGlo, confirmation (AID 1900). Type of assay: functional, organism-based.
In assay [15] the target is T5, Probable nicotinate-nucleotide adenylyltransferase. Type of assay: functional, Staphylococcus aureus subsp. aureus N315. The conditions noted are these: read-out: IC50_Mean.
Assay [16] in a line: enhancers of respiration in Yfh1-depleted yeast, dose response, Friedreich's ataxia, plus single-dose screen (AID 1465).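 Also: yeast depleted of Yfh1p frataxin homolog grown on glycerol needing respiration; WST-1 tetrazolium dye reduction as measure of cellular dehydrogenase metabolic activity.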 Type of assay: functional.
The test system of assay [17] is Streptococcus. Description: Group A Streptococcus viability loss, dose response, counter-screen for streptokinase expression inhibitor project, luminescence, BacTiterGlo (AID 1915).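 Also: potency for reduction of bacterial viability or growth.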 Type of assay: functional, organism-based.
Assay [18] is described as follows: Luminescence Cell-Based Dose Retest to Confirm Inhibitors of Cancer Stem Cells. [Related pubchem assays (depositor defined):AID2717, AID2721]. Type of assay: functional. To be noted: Homo sapiens.
Assay [19] deals with T6, Zinc finger protein mex-5 (Caenorhabditis elegans, UniProt Q9XUB2).
T6 sequence (Q9XUB2 whole entry): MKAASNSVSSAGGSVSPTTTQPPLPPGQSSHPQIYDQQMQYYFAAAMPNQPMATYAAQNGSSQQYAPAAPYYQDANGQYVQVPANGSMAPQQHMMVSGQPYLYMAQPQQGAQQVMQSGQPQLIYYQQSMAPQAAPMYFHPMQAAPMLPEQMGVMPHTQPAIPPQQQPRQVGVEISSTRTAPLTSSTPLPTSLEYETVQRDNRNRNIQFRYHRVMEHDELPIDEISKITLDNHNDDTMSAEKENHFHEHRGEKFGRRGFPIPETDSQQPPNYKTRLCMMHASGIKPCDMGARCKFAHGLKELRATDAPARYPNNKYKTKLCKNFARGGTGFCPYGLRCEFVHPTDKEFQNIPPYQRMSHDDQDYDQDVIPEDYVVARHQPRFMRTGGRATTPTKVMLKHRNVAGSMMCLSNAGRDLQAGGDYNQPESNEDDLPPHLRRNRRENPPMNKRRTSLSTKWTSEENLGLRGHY
The assay is described as follows: MEX-5/TCR-2 RNA interaction inhibitors, dose response, biochemical, C. elegans, fluorescence polarization (AID 1960). On the technique in general: Polarisation of emitted light reports the rotation of a fluorescent probe.

Assay [20] is described as follows: inhibitors of intracellular T. cruzi replication, confirmation, NIH3T3 host cells, beta-gal luminescence (AID 2044).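 Also: intracellular parasites grown in NIH/3T3 mouse fibroblasts as host cells; luminescent beta-galactosidase reporter signal from transgenic T. cruzi replicating inside host cells; inhibitors lower the luminescence signal.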 Type of assay: functional, cell-based.
Assay [21] deals with T7, RNA-binding protein pos-1 (Caenorhabditis elegans, UniProt G5EF15).
T7 sequence (G5EF15 whole entry): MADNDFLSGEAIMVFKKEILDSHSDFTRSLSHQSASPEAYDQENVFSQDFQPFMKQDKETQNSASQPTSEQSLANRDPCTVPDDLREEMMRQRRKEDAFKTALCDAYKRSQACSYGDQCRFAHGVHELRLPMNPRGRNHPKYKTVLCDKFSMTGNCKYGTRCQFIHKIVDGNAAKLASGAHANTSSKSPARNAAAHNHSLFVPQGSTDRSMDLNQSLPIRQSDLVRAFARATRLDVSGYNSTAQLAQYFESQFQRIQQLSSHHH
The assay is described as follows: inhibitors of POS-1/mex-3 RNA binding, dose response, biochemical, fluorescence polarization (AID 1964).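 Also: purified POS-1 fused to maltose binding protein made in E. coli; potency of compounds blocking POS-1 binding to fluorescent RNA.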

Assay [22] can be described thus: cytotoxicity toward NIH3T3 fibroblasts, dose response, counter-screen, cell-based, ATP luminescence, mouse fibroblasts (AID 2010).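 Also: cells exposed to compound for about 90 hours before reading.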 Type of assay: functional.
Assay [23] deals with Mothers against decapentaplegic homolog 3 (Homo sapiens, UniProt P84022). The assay is described as follows: SMAD3 transcription factor inhibitors, dose response (AID 715). Type of assay: functional.

Active and inactive are the calls of the source.
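For AC50 in this document: cells exposed to compound for roughly 70 hours or longer before luminescence read.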
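For IC50 Mean in this document: confirmatory dose-response retesting of NadD inhibitor hits first found in an ultra-high-throughput screen.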

T5 sequence (P65502 whole entry): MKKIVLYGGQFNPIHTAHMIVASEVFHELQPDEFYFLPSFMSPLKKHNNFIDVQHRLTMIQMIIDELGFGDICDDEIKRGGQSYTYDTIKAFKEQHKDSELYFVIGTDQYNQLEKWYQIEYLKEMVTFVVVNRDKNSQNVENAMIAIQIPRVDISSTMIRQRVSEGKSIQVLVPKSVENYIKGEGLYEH
Ion channel NompC, sequence (Q7T1G6 whole entry): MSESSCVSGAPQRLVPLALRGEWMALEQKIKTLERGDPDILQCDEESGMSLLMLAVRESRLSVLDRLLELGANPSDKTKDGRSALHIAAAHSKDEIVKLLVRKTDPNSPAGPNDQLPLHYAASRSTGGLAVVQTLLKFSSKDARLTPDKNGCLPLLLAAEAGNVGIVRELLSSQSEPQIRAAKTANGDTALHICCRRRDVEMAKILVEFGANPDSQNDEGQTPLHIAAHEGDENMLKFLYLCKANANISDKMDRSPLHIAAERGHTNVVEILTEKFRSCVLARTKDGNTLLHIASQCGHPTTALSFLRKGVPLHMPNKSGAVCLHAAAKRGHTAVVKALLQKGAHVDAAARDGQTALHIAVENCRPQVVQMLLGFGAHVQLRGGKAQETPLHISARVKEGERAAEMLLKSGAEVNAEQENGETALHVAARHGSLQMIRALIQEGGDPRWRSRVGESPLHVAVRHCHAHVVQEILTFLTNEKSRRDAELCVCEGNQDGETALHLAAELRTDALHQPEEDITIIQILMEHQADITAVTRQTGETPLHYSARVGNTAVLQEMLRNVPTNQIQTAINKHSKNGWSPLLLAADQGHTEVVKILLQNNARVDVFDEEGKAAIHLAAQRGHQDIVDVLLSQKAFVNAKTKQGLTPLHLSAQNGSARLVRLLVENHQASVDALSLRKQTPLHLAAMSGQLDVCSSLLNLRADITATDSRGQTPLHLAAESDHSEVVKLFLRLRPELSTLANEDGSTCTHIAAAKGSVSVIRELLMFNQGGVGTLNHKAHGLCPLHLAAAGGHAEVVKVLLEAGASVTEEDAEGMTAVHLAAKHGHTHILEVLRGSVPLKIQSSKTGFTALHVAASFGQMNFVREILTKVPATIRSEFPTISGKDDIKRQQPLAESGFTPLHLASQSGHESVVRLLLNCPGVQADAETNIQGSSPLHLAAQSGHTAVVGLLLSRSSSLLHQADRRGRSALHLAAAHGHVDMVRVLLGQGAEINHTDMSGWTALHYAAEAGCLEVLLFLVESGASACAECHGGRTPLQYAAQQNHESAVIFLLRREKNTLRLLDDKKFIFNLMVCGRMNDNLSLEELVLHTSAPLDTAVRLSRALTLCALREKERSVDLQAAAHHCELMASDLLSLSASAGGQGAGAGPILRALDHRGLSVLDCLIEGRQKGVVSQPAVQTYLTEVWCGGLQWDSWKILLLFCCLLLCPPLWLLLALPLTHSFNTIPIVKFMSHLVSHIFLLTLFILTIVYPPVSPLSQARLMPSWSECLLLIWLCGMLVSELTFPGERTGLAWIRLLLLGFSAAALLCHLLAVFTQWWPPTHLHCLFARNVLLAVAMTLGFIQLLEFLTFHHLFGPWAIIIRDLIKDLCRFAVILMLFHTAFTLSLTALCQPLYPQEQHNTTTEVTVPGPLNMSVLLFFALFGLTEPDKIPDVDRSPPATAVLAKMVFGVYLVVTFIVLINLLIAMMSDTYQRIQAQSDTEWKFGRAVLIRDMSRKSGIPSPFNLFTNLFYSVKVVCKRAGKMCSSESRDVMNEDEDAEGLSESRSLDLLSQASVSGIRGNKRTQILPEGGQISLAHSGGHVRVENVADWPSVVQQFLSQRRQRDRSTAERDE
Mothers against decapentaplegic homolog 3, sequence (P84022 whole entry): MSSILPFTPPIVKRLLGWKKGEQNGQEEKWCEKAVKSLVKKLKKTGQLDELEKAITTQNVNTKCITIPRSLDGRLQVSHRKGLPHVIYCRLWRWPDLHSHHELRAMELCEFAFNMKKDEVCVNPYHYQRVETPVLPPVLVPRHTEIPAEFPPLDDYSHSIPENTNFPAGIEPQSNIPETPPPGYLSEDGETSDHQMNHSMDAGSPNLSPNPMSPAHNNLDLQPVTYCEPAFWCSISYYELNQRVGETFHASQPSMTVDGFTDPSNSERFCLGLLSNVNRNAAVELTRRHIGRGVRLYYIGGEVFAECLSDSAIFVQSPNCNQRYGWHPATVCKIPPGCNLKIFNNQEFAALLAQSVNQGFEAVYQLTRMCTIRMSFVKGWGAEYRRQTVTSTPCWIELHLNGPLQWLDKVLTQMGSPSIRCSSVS
Mucolipin-3, sequence (Q8TDD5 whole entry): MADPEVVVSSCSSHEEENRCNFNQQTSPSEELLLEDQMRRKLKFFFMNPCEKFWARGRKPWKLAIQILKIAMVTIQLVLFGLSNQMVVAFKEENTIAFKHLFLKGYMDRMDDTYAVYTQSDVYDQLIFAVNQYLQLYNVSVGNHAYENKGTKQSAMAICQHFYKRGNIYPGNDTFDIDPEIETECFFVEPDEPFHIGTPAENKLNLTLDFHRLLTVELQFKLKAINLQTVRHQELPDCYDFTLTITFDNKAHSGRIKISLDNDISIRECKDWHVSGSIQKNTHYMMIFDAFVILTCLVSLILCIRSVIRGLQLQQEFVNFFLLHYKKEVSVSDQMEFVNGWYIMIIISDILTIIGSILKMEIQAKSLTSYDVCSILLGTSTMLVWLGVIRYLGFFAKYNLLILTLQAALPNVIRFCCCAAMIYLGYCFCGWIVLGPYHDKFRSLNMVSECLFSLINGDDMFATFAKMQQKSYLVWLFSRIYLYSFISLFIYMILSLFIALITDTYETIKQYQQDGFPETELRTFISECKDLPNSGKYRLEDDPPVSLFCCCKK
Peroxisome proliferator-activated receptor gamma/Nuclear receptor coactivator 1, sequence (P37231 whole entry): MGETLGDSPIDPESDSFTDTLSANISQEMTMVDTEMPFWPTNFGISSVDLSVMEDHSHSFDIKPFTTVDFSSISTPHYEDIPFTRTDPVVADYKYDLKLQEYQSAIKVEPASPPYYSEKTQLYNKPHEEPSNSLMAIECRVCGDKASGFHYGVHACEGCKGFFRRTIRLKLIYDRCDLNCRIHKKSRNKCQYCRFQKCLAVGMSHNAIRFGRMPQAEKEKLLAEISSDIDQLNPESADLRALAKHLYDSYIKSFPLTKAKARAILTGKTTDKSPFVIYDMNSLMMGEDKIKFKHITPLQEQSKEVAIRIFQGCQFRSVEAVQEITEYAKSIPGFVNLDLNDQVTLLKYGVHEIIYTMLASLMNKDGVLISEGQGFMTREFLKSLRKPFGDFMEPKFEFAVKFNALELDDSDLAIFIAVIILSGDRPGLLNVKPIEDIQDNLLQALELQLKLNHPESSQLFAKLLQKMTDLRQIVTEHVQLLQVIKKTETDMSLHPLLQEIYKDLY
Peroxisome proliferator-activated receptor gamma/Nuclear receptor coactivator 1, sequence (Q15788 whole entry, further chain): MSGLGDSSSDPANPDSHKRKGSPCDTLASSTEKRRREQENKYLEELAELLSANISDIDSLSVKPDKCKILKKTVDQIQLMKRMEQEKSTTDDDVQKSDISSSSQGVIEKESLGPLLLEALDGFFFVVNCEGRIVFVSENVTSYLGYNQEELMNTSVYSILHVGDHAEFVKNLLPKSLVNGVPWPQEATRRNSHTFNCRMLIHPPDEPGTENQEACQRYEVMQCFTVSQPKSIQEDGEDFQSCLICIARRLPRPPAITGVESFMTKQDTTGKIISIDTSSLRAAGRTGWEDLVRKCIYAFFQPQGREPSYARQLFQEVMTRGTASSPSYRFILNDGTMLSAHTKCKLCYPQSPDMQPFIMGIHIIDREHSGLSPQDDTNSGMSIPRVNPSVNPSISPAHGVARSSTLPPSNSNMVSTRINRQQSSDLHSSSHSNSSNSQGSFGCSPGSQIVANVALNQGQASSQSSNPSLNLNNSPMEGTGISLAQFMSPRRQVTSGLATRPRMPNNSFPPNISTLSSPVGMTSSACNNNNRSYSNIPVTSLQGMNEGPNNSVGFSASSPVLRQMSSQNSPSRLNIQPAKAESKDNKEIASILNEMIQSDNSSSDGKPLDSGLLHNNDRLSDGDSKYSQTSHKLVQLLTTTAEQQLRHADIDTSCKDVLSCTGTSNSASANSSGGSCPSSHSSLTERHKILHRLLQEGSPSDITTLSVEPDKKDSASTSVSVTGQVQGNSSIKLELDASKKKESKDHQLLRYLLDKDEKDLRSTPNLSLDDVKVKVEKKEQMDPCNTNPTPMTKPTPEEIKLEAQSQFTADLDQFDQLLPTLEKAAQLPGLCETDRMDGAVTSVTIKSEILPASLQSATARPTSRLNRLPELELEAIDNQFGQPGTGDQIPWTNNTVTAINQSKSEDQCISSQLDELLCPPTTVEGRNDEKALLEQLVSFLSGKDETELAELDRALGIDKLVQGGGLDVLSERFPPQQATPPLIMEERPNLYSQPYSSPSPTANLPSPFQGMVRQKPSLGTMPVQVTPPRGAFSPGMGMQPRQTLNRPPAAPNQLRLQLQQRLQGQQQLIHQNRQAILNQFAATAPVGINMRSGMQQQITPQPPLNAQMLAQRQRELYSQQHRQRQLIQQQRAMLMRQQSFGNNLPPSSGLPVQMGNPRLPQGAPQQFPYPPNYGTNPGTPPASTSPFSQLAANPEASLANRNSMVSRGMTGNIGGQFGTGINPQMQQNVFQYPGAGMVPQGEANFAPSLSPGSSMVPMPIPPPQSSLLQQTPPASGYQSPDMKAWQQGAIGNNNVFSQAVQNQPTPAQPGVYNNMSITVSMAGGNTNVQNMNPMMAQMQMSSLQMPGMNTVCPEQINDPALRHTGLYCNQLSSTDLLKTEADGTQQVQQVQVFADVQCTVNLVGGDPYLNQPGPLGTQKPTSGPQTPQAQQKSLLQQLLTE

As to `COc1cc(/C=C2\SC(=O)N(CC(=O)Nc3cccc(C)c3)C2=O)cc([N+](=O)[O-])c1O`, the values for the IC50 in assay [1] and in [2] were > 50 µM (active) and 40.8 µM (active), respectively.

As for `CCOC(=O)C1CCN(C(=O)CSc2ccccc2Cl)CC1`, the concentration giving a half-maximal response (EC50) in assay [3], in assay [4] and in [5] was > 79.4 µM (not active) in each case.

Regarding `COc1ccccc1C1Nc2cccc3cccc(c23)N1`, the cytotoxic concentration (CC50) in assay [6] is on record as > 99 µM (not active). For the same compound, the IC50 in assay [7] was 35.1 µM (active).

For `Cc1cc(C)c2c(O)nc(SCC(=O)c3ccc(C)c(C)c3)nc2n1`, the IC50 in assay [8] is 27.6 µM (active).

Take `COc1ccc(N2CCN(C(=O)CCCn3c(=S)[nH]c4ccccc4c3=O)CC2)cc1`: in [9], the IC50 is recorded as > 50 µM (not active).

For the compound `Cc1onc(-c2ccccc2Cl)c1C(=O)Nc1cccc(-c2nc3ncccn3c2C)c1`, the EC50 in assay [10] and in assay [11] was > 29.9 µM (not active) throughout.

Turning to `Oc1nc(NN=C(S)NCc2ccccc2)nc2c1C1(CCCCC1)Cc1ccccc1-2`, the concentration for a half-maximal effect (EC50) was 4.58 µM (active) in assay [12], 3.33 µM (active) in assay [14], > 100 µM (active) in [16] and 6.03 µM (active) in assay [17]. Besides, the IC50 in [13] was 11.8 µM (active); in assay [15] it was 35.8 µM (active). In [18], the concentration at half-maximal activity (AC50) was 3 µM (active).

For `CCCN1CCCc2cc(CN)ccc21`, the half-maximal effective concentration (EC50) in [19] is 13 µM (active); in assay [20], 0.127 µM (active); in assay [21], 18.5 µM (active); in [22], > 30 µM (not active). Besides, in assay [23], the IC50 is 24.6 µM (active).

The record behind these values is ChEMBL document CHEMBL1201862, “PubChem BioAssay data set” (2004).
